Data: PMC6332235, “Phosphonylated Acyclic Guanosine Analogues with the 1,2,3-Triazole Linker” (Molecules, 2015)
Read-outs that look alike come from different tables or passages of the source.

Columns and labels:
[1] = tested on: murine leukemia L1210 cells; assay: Cytostatic activity: inhibition of proliferation of murine leukemia L1210 cells; format: cell-based
Method: (§1) The cytotoxicity of the tested compounds toward the uninfected host cells was defined as the minimum cytotoxic concentration (MCC) that causes a microscopically-detectable alteration of normal cell morphology. The 50% cytotoxic concentration (CC50), causing a 50% decrease in cell viability, was determined using a colorimetric 3-(4,5-dimethylthiazol-2-yl)-5-(3-carboxymethoxyphenyl)-2-(4-sulfophenyl)-2H-tetrazolium (MTS) assay system. The cytostatic activity of the tested compounds was defined as the 50% cytostatic inhibitory concentration (IC50), causing a 50% decrease in cell proliferation, and was determined against murine leukemia L1210, human T-lymphocyte CEM and human cervix carcinoma HeLa cells (Table 1).
(§2) All assays were performed in 96-well microtiter plates. To each well were added (5−7.5) × 10^4 tumor cells and a given amount of the test compound. The cells were allowed to proliferate for 48 h (murine leukemia L1210 cells) or 72 h (human lymphocytic CEM and human cervix carcinoma HeLa cells) at 37 °C in a humidified CO2-controlled atmosphere. At the end of the incubation period, the cells were counted in a Coulter counter. The IC50 (50% inhibitory concentration) was defined as the concentration of the compound that inhibited cell proliferation by 50%.

[2] = tested on: human cervix carcinoma HeLa cells; assay: Cytostatic activity: inhibition of proliferation of human cervix carcinoma HeLa cells; format: cell-based; details: read-out: IC50 (HeLa)
Method: as §1, §2

[3] = tested on: human T-lymphocyte CEM cells; assay: Cytostatic activity: inhibition of proliferation of human T-lymphocyte CEM cells; format: cell-based; details: read-out: IC50 (CEM)
Method: as §1, §2

thymidine phosphorylase = tested on: thymidine phosphorylase; design: method as in PMID 22372816; details: cited from earlier work
[4] = Mus musculus, L1210, 48 h, read-out: IC50 (L1210)
[5] = Mus musculus, L1210, 48 h, murine leukemia L1210 cells, 48 h proliferation, Coulter counter, read-out: IC50 (L1210)
[6] = human cervix carcinoma HeLa cells, 72 h proliferation, Coulter counter
[7] = CCRF-CEM, human T-lymphocyte CEM cells, 72 h proliferation, Coulter counter
[8] = Mus musculus, L1210, range over both L1210 and CEM cells and both 17k isomers, read-out: IC50 against proliferation of L1210 and CEM cell lines (range given)
[9] = range over both L1210 and CEM cells and both 17k isomers, read-out: IC50 against proliferation of L1210 and CEM cell lines (range given)

| Compound | IC50 [1, 4] | IC50 ([2]; Homo sapiens, HeLa, 72 h) | IC50 ([3]; Homo sapiens, CCRF-CEM, 72 h) | further results |
| --- | --- | --- | --- | --- |
| CCOP(=O)(CC(O)Cn1cc(Cn2cnc3c(=O)[nH]c(N)nc32)nn1)OCC (stereo not shown) [Compound 16f, Diethyl 3-{4-[(2-amino-6-oxo-1,6-dihydro-9H-purin-9-yl)methyl]-1H-1,2,3-triazol-1-yl}-2-hydroxypropylphosphonate] | > 250 µM | 195 ± 78 µM | > 250 µM |  |
| CCOP(=O)(CCOCCn1cc(Cn2cnc3c(=O)[nH]c(N)nc32)nn1)OCC [Compound 16i, Diethyl 2-{4-[(2-amino-6-oxo-1,6-dihydro-9H-purin-9-yl)methyl]-1H-1,2,3-triazol-1-yl}ethoxyethyphosphonate] | > 250 µM | 210 ± 13 µM | > 250 µM |  |
| CCOP(=O)(CC(O)Cn1cc(Cn2cnc3c(Cl)nc(N)nc32)nn1)OCC (stereo not shown) [Compound 17f, Diethyl 3-{4-[(2-amino-6-chloro-9H-purin-9-yl)methyl]-1H-1,2,3-triazol-1-yl}-2-hydroxypropylphosphonate] | > 250 µM | > 250 µM | > 250 µM |  |
| CCOP(=O)(COCCn1cc(Cn2cnc3c(Cl)nc(N)nc32)nn1)OCC [Compound 17h, Diethyl 2-{4-[(2-amino-6-chloro-9H-purin-9-yl)methyl]-1H-1,2,3-triazol-1-yl}-ethoxymethylphosphonate] | > 250 µM | > 250 µM | ≥ 250 µM |  |
| Nc1nc2c(ncn2Cc2cn(CCCCC(F)(F)P(=O)(O)O)nn2)c(=O)[nH]1 [Compound 13] |  |  |  | Inhibitory activity against thymidine phosphorylase (thymidine phosphorylase): inhibitory activity |
| CCOP(=O)(OCC)C(O)Cn1cc(Cn2cnc3c(Cl)nc(N)nc32)nn1 (stereo not shown) [Compound 17e, Diethyl 2-{4-[(2-amino-6-chloro-9H-purin-9-yl)methyl]-1H-1,2,3-triazol-1-yl}-1-hydroxyethylphosphonate] | > 250 µM | > 250 µM | > 250 µM | melting point: 174 to 175 °C |
| O=c1[nH]cc(F)c(=O)[nH]1 [5-fluorouracil, reference compound] |  |  |  | IC50 [1, 5]: 0.33 ± 0.17 µM; IC50 [2, 6]: 0.54 ± 0.12 µM; IC50 [3, 7]: 18 ± 5 µM |
| CCOP(=O)(CCCCn1cc(Cn2cnc3c(=O)[nH]c(N)nc32)nn1)OCC [Compound 16d, Diethyl 4-{4-[(2-amino-6-oxo-1,6-dihydro-9H-purin-9-yl)methyl]-1H-1,2,3-triazol-1-yl}butylphosphonate] | > 250 µM | 148 ± 25 µM | > 250 µM |  |
| CCOP(=O)(Cn1cc(Cn2cnc3c(Cl)nc(N)nc32)nn1)OCC [Compound 17a, Diethyl {4-[(2-amino-6-chloro-9H-purin-9-yl)methyl]-1H-1,2,3-triazol-1-yl}methylphosphonate] | 283 ± 17 µM | ≥ 250 µM | ≥ 250 µM |  |
| CCOP(=O)(CCCn1cc(Cn2cnc3c(Cl)nc(N)nc32)nn1)OCC [Compound 17c, Diethyl 3-{4-[(2-amino-6-chloro-9H-purin-9-yl)methyl]-1H-1,2,3-triazol-1-yl}propylphosphonate] | 227 ± 32 µM | ≥ 250 µM | > 250 µM |  |
| CCOP(=O)(Cn1cc(Cn2cnc3c(=O)[nH]c(N)nc32)nn1)OCC [Compound 16a, Diethyl {4-[(2-amino-6-oxo-1,6-dihydro-9H-purin-9-yl)methyl]-1H-1,2,3-triazol-1-yl}methylphosphonate] | > 250 µM | > 250 µM | > 250 µM |  |
| CCOP(=O)(OCC)C(O)CCn1cc(Cn2cnc3c(Cl)nc(N)nc32)nn1 (stereo not shown) [Compound 17g, Diethyl 3-{4-[(2-amino-6-chloro-9H-purin-9-yl)methyl]-1H-1,2,3-triazol-1-yl}-1-hydroxypropylphosphonate] | > 250 µM | > 250 µM | > 250 µM |  |
| CCOP(=O)(CCOCCn1cc(Cn2cnc3c(Cl)nc(N)nc32)nn1)OCC [Compound 17i, Diethyl 2-{4-[(2-amino-6-chloro-9H-purin-9-yl)methyl]-1H-1,2,3-triazol-1-yl}-ethoxyethylphosphonate] | > 250 µM | > 250 µM | > 250 µM |  |
| CCOP(=O)(OCC)C(O)CCn1cc(Cn2cnc3c(=O)[nH]c(N)nc32)nn1 (stereo not shown) [Compound 16g, Diethyl 3-{4-[(2-amino-6-oxo-1,6-dihydro-9H-purin-9-yl)methyl]-1H-1,2,3-triazol-1-yl}-1-hydroxypropylphosphonate] | > 250 µM | 185 ± 35 µM | > 250 µM |  |
| CCOP(=O)(CNC(=O)Cn1cc(Cn2cnc3c(=O)[nH]c(N)nc32)nn1)OCC [Compound 16j, Diethyl 2-{4-[(2-amino-6-oxo-1,6-dihydro-9H-purin-9-yl)methyl]-1H-1,2,3-triazol-1-yl}acetamidomethyphosphonate] | > 250 µM | 212 ± 54 µM | > 250 µM | melting point: > 230 °C |
| CCOP(=O)(CCn1cc(Cn2cnc3c(Cl)nc(N)nc32)nn1)OCC [Compound 17b, Diethyl 2-{4-[(2-amino-6-chloro-9H-purin-9-yl)methyl]-1H-1,2,3-triazol-1-yl}ethylphosphonate] | ≥ 250 µM | 227 ± 32 µM | > 250 µM |  |
| Nc1nc(Cl)c2ncn(Cc3cn(C[C@H](OCc4ccccc4)[C@H](O)P(=O)(OCc4ccccc4)OCc4ccccc4)nn3)c2n1 [(1R,2S)-17k, (1R,2S)-Dibenzyl 3-{4-[(2-amino-6-chloro-9H-purin-9-yl)methyl]-1H-1,2,3-triazol-1-yl}-2-benzyloxy-1-hydroxypropylphosphonate] |  |  |  | IC50 [1, 5]: 21 ± 2 µM; IC50 [1, 8]: 15 to 30 µM; IC50 [1, 9]: 16 to 30 µM; IC50 [2, 6]: 90 ± 33 µM; IC50 [3, 7]: 26 ± 8 µM |
| Nc1nc(Cl)c2ncn(Cc3cn(C[C@H](OCc4ccccc4)[C@@H](O)P(=O)(OCc4ccccc4)OCc4ccccc4)nn3)c2n1 [(1S,2S)-17k, (1S,2S)-Dibenzyl 3-{4-[(2-amino-6-chloro-9H-purin-9-yl)methyl]-1H-1,2,3-triazol-1-yl}-2-benzyloxy-1-hydroxypropylphosphonate] |  |  |  | IC50 [1, 5]: 16 ± 6 µM; IC50 [1, 8]: 15 to 30 µM; IC50 [1, 9]: 16 to 30 µM; IC50 [2, 6]: 84 ± 12 µM; IC50 [3, 7]: 30 ± 16 µM; melting point: 76 to 78 °C |
| Diethyl 2-{4-[(2-amino-6-chloro-9H-purin-9-yl)methyl]-1H-1,2,3-triazol-1-yl}-acetamidoethylphosphonate [Compound 17j] |  |  |  | IC50 ([1]; murine leukemia L1210 cells, 48 h proliferation, Coulter counter, read-out: IC50 (L1210)): > 250 µM; IC50 [2, 6]: > 250 µM; IC50 ([3]; human T-lymphocyte CEM cells, 72 h proliferation, Coulter counter): > 250 µM |
| CCOP(=O)(OCC)C(O)Cn1cc(Cn2cnc3c(=O)[nH]c(N)nc32)nn1 (stereo not shown) [Compound 16e, Diethyl 2-{4-[(2-amino-6-oxo-1,6-dihydro-9H-purin-9-yl)methyl]-1H-1,2,3-triazol-1-yl}-1-hydroxyethylphosphonate] | > 250 µM | 206 ± 49 µM | > 250 µM | melting point: > 265 °C |
| CCOP(=O)(CCCCn1cc(Cn2cnc3c(Cl)nc(N)nc32)nn1)OCC [Compound 17d, Diethyl 4-{4-[(2-amino-6-chloro-9H-purin-9-yl)methyl]-1H-1,2,3-triazol-1-yl}butylphosphonate] | > 250 µM | ≥ 250 µM | > 250 µM |  |
| CCOP(=O)(CCCn1cc(Cn2cnc3c(=O)[nH]c(N)nc32)nn1)OCC [Compound 16c, Diethyl 3-{4-[(2-amino-6-oxo-1,6-dihydro-9H-purin-9-yl)methyl]-1H-1,2,3-triazol-1-yl}propylphosphonate] | > 250 µM | 138 ± 52 µM | > 250 µM |  |
| CCOP(=O)(CCn1cc(Cn2cnc3c(=O)[nH]c(N)nc32)nn1)OCC [Compound 16b, Diethyl 2-{4-[(2-amino-6-oxo-1,6-dihydro-9H-purin-9-yl)methyl]-1H-1,2,3-triazol-1-yl}ethylphosphonate] | > 250 µM | > 250 µM | > 250 µM |  |
| CCOP(=O)(COCCn1cc(Cn2cnc3c(=O)[nH]c(N)nc32)nn1)OCC [Compound 16h, Diethyl 2-{4-[(2-amino-6-oxo-1,6-dihydro-9H-purin-9-yl)methyl]-1H-1,2,3-triazol-1-yl}ethoxymethyphosphonate] | > 250 µM | ≥ 250 µM | > 250 µM | melting point: 89 to 92 °C |
